Measurements: patent US20200347043A1, “MODULATORS OF THE INTEGRATED STRESS PATHWAY” (Calico Life Sciences LLC, priority 2019, published 2020)

These molecules were tested on HEK293T cells carrying the ATF4 luciferase reporter (assay: ATF4-Luc assay (in vitro model of VWMD)). Conditions: Homo sapiens, HEK-293T, 1 μg/mL tunicamycin, 7 hours, One Glo luminescence.
Assay type: cell-based, human
Outline: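 Stable HEK293T line expressing firefly luciferase behind the human ATF4 5′-UTR, treated with 1 μg/mL tunicamycin plus compound for 7 hours. Luminescence read with One Glo; EC50 determined.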

| SMILES | EC50 [nM] |
| --- | --- |
| O=C(NC12CC(c3cc([C@H]4C[C@@H](OC(F)(F)F)C4)on3)(C1)C2)[C@H]1C[C@@H](O)c2cc(Cl)ccc2O1 [Compound 234, (2R,4R)-6-chloro-4-hydroxy-N-{3-(5-[cis-3-(trifluoromethoxy)cyclobutyl]-1,2-oxazol-3-yl}bicyclo[1.1.1]pentan-1-yl)-3,4-dihydro-2H-1-benzopyran-2-carboxamide] | 10 to 50 |
| O=C(NC12CC(n3ncc4cc(Cl)ccc43)(C1)C2)[C@H]1C[C@@H](O)c2cc(Cl)ccc2O1 [Compound 235, (2R,4R)-6-chloro-N-[3-(5-chloro-1H-indazol-1-yl)bicyclo[1.1.1]pentan-1-yl]-4-hydroxy-3,4-dihydro-2H-1-benzopyran-2-carboxamide] | 50 to 250 |
| O=C(NC12CC(n3cc(-c4ccc(Cl)cc4)cn3)(C1)C2)[C@@H]1C[C@@H](O)c2cc(Cl)ccc2O1 [Compound 236, (2S,4R)-6-chloro-N-{3-[4-(4-chlorophenyl)-1H-pyrazol-1-yl]bicyclo[1.1.1]pentan-1-yl}-4-hydroxy-3,4-dihydro-2H-1-benzopyran-2-carboxamide] | < 10 |
| O=C(NC12CC(c3cnn(-c4ccc(Cl)c(F)c4)c3)(C1)C2)[C@H]1C[C@@H](O)c2cc(Cl)ccc2O1 [Compound 237, (2R,4R)-6-chloro-N-{3-[1-(4-chloro-3-fluorophenyl)-1H-pyrazol-4-yl]bicyclo[1.1.1]pentan-1-yl}-4-hydroxy-3,4-dihydro-2H-1-benzopyran-2-carboxamide] | < 10 |
| O=C(NC12CC(c3cnn(-c4ccc(Cl)c(F)c4)c3)(C1)C2)[C@@H]1C[C@@H](O)c2cc(Cl)ccc2O1 [Compound 238, (2S,4R)-6-chloro-N-{3-[1-(4-chloro-3-fluorophenyl)-1H-pyrazol-4-yl]bicyclo[1.1.1]pentan-1-yl}-4-hydroxy-3,4-dihydro-2H-1-benzopyran-2-carboxamide] | 10 to 50 |
| O=C(CO[C@H]1C[C@@H](OC(F)(F)F)C1)NC12CCC(NC(=O)[C@@H]3C[C@@H](O)c4cc(Cl)ccc4O3)(CC1)CC2 [Compound 239, (2S,4R)-6-chloro-4-hydroxy-N-[4-(2-{[cis-3-(trifluoromethoxy)cyclobutyl]oxy}acetamido)bicyclo[2.2.2]octan-1-yl]-3,4-dihydro-2H-1-benzopyran-2-carboxamide] | 10 to 50 |
| O=C(NC12CC(n3ccc(-c4ccc(Cl)cc4)c3)(C1)C2)[C@H]1C[C@@H](O)c2cc(Cl)ccc2O1 [Compound 240, (2R,4R)-6-chloro-N-{3-[3-(4-chlorophenyl)-1H-pyrrol-1-yl]bicyclo[1.1.1]pentan-1-yl}-4-hydroxy-3,4-dihydro-2H-1-benzopyran-2-carboxamide] | < 10 |
| O=C(NC12CC(n3ccc(-c4ccc(Cl)cc4)c3)(C1)C2)[C@@H]1C[C@@H](O)c2cc(Cl)ccc2O1 [Compound 241, (2S,4R)-6-chloro-N-{3-[3-(4-chlorophenyl)-1H-pyrrol-1-yl]bicyclo[1.1.1]pentan-1-yl}-4-hydroxy-3,4-dihydro-2H-1-benzopyran-2-carboxamide] | 50 to 250 |
| O=C(NC12CC(n3ccc(-c4ccc(Cl)c(F)c4)c3)(C1)C2)[C@H]1C[C@@H](O)c2cc(Cl)ccc2O1 [Compound 242, (2R,4R)-6-chloro-N-{3-[3-(4-chloro-3-fluorophenyl)-1H-pyrrol-1-yl]bicyclo[1.1.1]pentan-1-yl}-4-hydroxy-3,4-dihydro-2H-1-benzopyran-2-carboxamide] | < 10 |
| O=C(NC12CC(n3ccc(-c4ccc(Cl)c(F)c4)c3)(C1)C2)[C@@H]1C[C@@H](O)c2cc(Cl)ccc2O1 [Compound 243, (2S,4R)-6-chloro-N-{3-[3-(4-chloro-3-fluorophenyl)-1H-pyrrol-1-yl]bicyclo[1.1.1]pentan-1-yl}-4-hydroxy-3,4-dihydro-2H-1-benzopyran-2-carboxamide] | 50 to 250 |
| O=C(NC12CC(n3ccc(-c4ccc(C(F)(F)F)nc4)c3)(C1)C2)[C@H]1C[C@@H](O)c2cc(Cl)ccc2O1 [Compound 244, (2R,4R)-6-chloro-4-hydroxy-N-(3-{3-[6-(trifluoromethyl)pyridin-3-yl]-1H-pyrrol-1-yl}bicyclo[1.1.1]pentan-1-yl)-3,4-dihydro-2H-1-benzopyran-2-carboxamide] | < 10 |
| O=C(NC12CC(n3ccc(-c4ccc(C(F)(F)F)nc4)c3)(C1)C2)[C@@H]1C[C@@H](O)c2cc(Cl)ccc2O1 [Compound 245, (2S,4R)-6-chloro-4-hydroxy-N-(3-{3-[6-(trifluoromethyl)pyridin-3-yl]-1H-pyrrol-1-yl}bicyclo[1.1.1]pentan-1-yl)-3,4-dihydro-2H-1-benzopyran-2-carboxamide] | 50 to 250 |
| O=C(NC12CC(c3cc(-c4ccc(Cl)cc4)no3)(C1)C2)[C@H]1C[C@@H](O)c2cc(Cl)ccc2O1 [Compound 246, (2R,4R)-6-chloro-N-{3-[3-(4-chlorophenyl)-1,2-oxazol-5-yl]bicyclo[11.11]pentan-1-yl}-4-hydroxy-3,4-dihydro-2H-1-benzopyran-2-carboxamide] | 10 to 50 |
| O=C(NC12CC(c3cc(-c4ccc(Cl)cc4)no3)(C1)C2)[C@@H]1C[C@@H](O)c2cc(Cl)ccc2O1 [Compound 247, (2S,4R)-6-chloro-N-{3-[3-(4-chlorophenyl)-1,2-oxazol-5-yl]bicyclo[1.1.1]pentan-1-yl}-4-hydroxy-3,4-dihydro-2H-1-benzopyran-2-carboxamide] | 50 to 250 |
| O=C(NC12CC(c3cc(-c4ccc(Cl)c(F)c4)no3)(C1)C2)[C@H]1C[C@@H](O)c2cc(Cl)ccc2O1 [Compound 248, (2R,4R)-6-chloro-N-{3-[3-(4-chloro-3-fluorophenyl)-1,2-oxazol-5-yl]bicyclo[1.1.1]pentan-1-yl}-4-hydroxy-3,4-dihydro-2H-1-benzopyran-2-carboxamide] | 10 to 50 |
| O=C(NC12CC(c3cc(-c4ccc(Cl)c(F)c4)no3)(C1)C2)[C@@H]1C[C@@H](O)c2cc(Cl)ccc2O1 [Compound 249, (2S,4R)-6-chloro-N-{3-[3-(4-chloro-3-fluorophenyl)-1,2-oxazol-5-yl]bicyclo[11.11]pentan-1-yl}-4-hydroxy-3,4-dihydro-2H-1-benzopyran-2-carboxamide] | 50 to 250 |
| O=C(NC12CC(c3cc(-c4ccc(C(F)(F)F)nc4)no3)(C1)C2)[C@H]1C[C@@H](O)c2cc(Cl)ccc2O1 [Compound 250, (2R,4R)-6-chloro-4-hydroxy-N-(3-{3-[6-(trifluoromethyl)pyridin-3-yl]-1,2-oxazol-5-yl}bicyclo[1.1.1]pentan-1-yl)-3,4-dihydro-2H-1-benzopyran-2-carboxamide] | 50 to 250 |
| O=C(NC12CC(c3cc(-c4ccc(C(F)(F)F)nc4)no3)(C1)C2)[C@@H]1C[C@@H](O)c2cc(Cl)ccc2O1 [Compound 251, (2S,4R)-6-chloro-4-hydroxy-N-(3-{3-[6-(trifluoromethyl)pyridin-3-yl]-1,2-oxazol-5-yl}bicyclo[1.1.1]pentan-1-yl)-3,4-dihydro-2H-1-benzopyran-2-carboxamide] | > 2000 |
| O=C(NC12CC(c3ncc(-c4ccc(Cl)cc4)o3)(C1)C2)[C@H]1C[C@@H](O)c2cc(Cl)ccc2O1 [Compound 254, (2R,4R)-6-chloro-N-{3-[5-(4-chlorophenyl)-1,3-oxazol-2-yl]bicyclo[1.1.1]pentan-1-yl}-4-hydroxy-3,4-dihydro-2H-1-benzopyran-2-carboxamide] | < 10 |
| O=C(NC12CC(c3ncc(-c4ccc(Cl)cc4)o3)(C1)C2)[C@@H]1C[C@@H](O)c2cc(Cl)ccc2O1 [Compound 255, (2S,4R)-6-chloro-N-{3-[5-(4-chlorophenyl)-1,3-oxazol-2-yl]bicyclo[1.1.1]pentan-1-yl}-4-hydroxy-3,4-dihydro-2H-1-benzopyran-2-carboxamide] | 10 to 50 |
| O=C(NC12CC(c3cc(-c4ccc(Cl)cc4)on3)(C1)C2)[C@H]1C[C@@H](O)c2cc(Cl)ccc2O1 [Compound 256, (2R,4R)-6-chloro-N-{3-[5-(4-chlorophenyl)-1,2-oxazol-3-yl]bicyclo[1.1.1]pentan-1-yl}-4-hydroxy-3,4-dihydro-2H-1-benzopyran-2-carboxamide] | < 10 |
| O=C(NC12CC(c3cc(-c4ccc(Cl)cc4)on3)(C1)C2)[C@@H]1C[C@@H](O)c2cc(Cl)ccc2O1 [Compound 257, (2S,4R)-6-chloro-N-{3-[5-(4-chlorophenyl)-1,2-oxazol-3-yl]bicyclo[1.1.1]pentan-1-yl}-4-hydroxy-3,4-dihydro-2H-1-benzopyran-2-carboxamide] | 50 to 250 |
| O=C(NC12CC(c3cc(-c4ccc(Cl)c(F)c4)on3)(C1)C2)[C@H]1C[C@@H](O)c2cc(Cl)ccc2O1 [Compound 258, (2R,4R)-6-chloro-N-{3-[5-(4-chloro-3-fluorophenyl)-1,2-oxazol-3-yl]bicyclo[1.1.1]pentan-1-yl}-4-hydroxy-3,4-dihydro-2H-1-benzopyran-2-carboxamide] | < 10 |
| O=C(NC12CC(c3cc(-c4ccc(Cl)c(F)c4)on3)(C1)C2)[C@@H]1C[C@@H](O)c2cc(Cl)ccc2O1 [Compound 259, (2S,4R)-6-chloro-N-{3-[5-(4-chloro-3-fluorophenyl)-1,2-oxazol-3-yl]bicyclo[11.11]pentan-1-yl}-4-hydroxy-3,4-dihydro-2H-1-benzopyran-2-carboxamide] | 10 to 50 |
| O=C(NC12CC(c3cc(-c4ccc(C(F)(F)F)nc4)on3)(C1)C2)[C@H]1C[C@@H](O)c2cc(Cl)ccc2O1 [Compound 260, (2R,4R)-6-chloro-4-hydroxy-N-(3-{5-[6-(trifluoromethyl)pyridin-3-yl]-1,2-oxazol-3-yl}bicyclo[1.1.1]pentan-1-yl)-3,4-dihydro-2H-1-benzopyran-2-carboxamide] | 10 to 50 |
| O=C(NC12CC(c3cc(-c4ccc(C(F)(F)F)nc4)on3)(C1)C2)[C@@H]1C[C@@H](O)c2cc(Cl)ccc2O1 [Compound 261, (2S,4R)-6-chloro-4-hydroxy-N-(3-{5-[6-(trifluoromethyl)pyridin-3-yl]-1,2-oxazol-3-yl}bicyclo[1.1.1]pentan-1-yl)-3,4-dihydro-2H-1-benzopyran-2-carboxamide] | 50 to 250 |
